Where two headings read alike, the source gives them in different places. No end group written: not given here.
Legend:
[1] = in vitro; type: cell-based
Procedure: (§1) For cytotoxicity assay, the effect of the peptides on three different types of cancer cells were analysed, human non-small cell lung adenocarcinoma A549 cells, human breast adenocarcinoma MDA-MB-231 cells and human colorectal adenocarcinoma HT-29 cells. As control, HUVEC cell line was selected.
(§2) A549 cell line was maintained in RPMI 1640 medium containing 2 mM L-glutamine and supplemented with 10% FCS at 37° C. MDA-MB-231 and HT-29 cell lines were maintained in DMEM medium supplemented with 10% FCS at 37° C. The medium for cancer cells were further supplemented with antibiotics, penicillin 50 U/mL and streptomycin […]. HUVEC cells were maintained in EndoGRO MV-VEGF Complete Media Kit at 37° C.
(§3) The cells from each of the four cell lines were seeded individually in a 96-wells plate at a cell density of 5×10^3 cells/well. […]
(§4) The effect of the peptides on the cell viability was determined by the measurement of the concentration of ATP using CellTitre-Glo Luminescent Cell Viability assay. Luminescent signals were measured using a GLOMAX Luminometer system.
(§5) The LC50 value was calculated for both the peptides for individual cell lines by conducting non-linear regression analysis using commercially available software (SPPS version 17.0; SPS Inc, Chicago, Ill., USA). […]

[2] = Haemolysis assay; type: cell-based, human; settings: human, pH 7.4
Procedure: (§6) For analysis of the haemolytic activity, RBCs (2×10^7 cells) taken from a healthy donor in DBPS, pH 7.4 (100 μL) were incubated with Ps-1Pb and Ps-2 Pa respectively in varying concentrations ranging from 1.6 μM to 100 μM of the peptides for a period of 1 hour at 37° C. After 1 hr, the samples were centrifuged at 12000 rpm for 15 seconds and the supernatant was collected. Absorbance of the supernatant was measured at 450 nm.
(§7) As control, the RBCs at a concentration of 2×10^7 were incubated in DBPS as a negative control to detect the absorbance in the absence of haemolysis. In addition, positive control was also maintained in which the RBC at a concentration of 2×10^7 was incubated with DPBS and 1% v/v Tween-20. The controls were centrifuged at 12000 rpm for 15 seconds and an absorbance reading was taken for the supernatant at 450 nm.
(§8) The LC50 value was taken as the mean concentration of peptide producing 50% haemolysis in three independent experiments.

[3] = tested on: human red blood cells (RBC); assay: Haemolysis assay; type: cell-based
Procedure: as §6, §7, §8

[4] = tested on: S. aureus (ATCC 25923 and MRSA clinical isolates); type: cell-based, Staphylococcus aureus; settings: for Minimum inhibitory concentration S. aureus ATCC 25923 / Minimum inhibitory concentration S. aureus S908: ATCC 25923; for Minimum inhibitory concentration S. aureus 127/08 / Minimum inhibitory concentration S. aureus 145/08 / Minimum inhibitory concentration S. aureus 274/08 / Minimum inhibitory concentration S. aureus T4/6: MRSA clinical isolate
Text: Six clinical sporadic isolates of MRSA were isolated from the wounds of patients admitted to Tawam Hospital (Al Ain, UAE). The strains were characterised by multi-locus sequence typing (MLST), Staphylococcal cassette chromosome (SCCmec) typing, accessory gene regulator (agr) typing, Staphylococcus protein A (spa) typing, and toxin gene carriage (Sonnevend et al., 2012). The isolated strains (127/08, 145/08, 274/08, V4180, S908, and T4/6) were resistant to all β-lactam antibiotics tested and to a range of non-β-lactam antibiotics.
(§9) Minimum Inhibitory Concentration (MIC) of the peptides was determined in duplicate in three independent experiments by standard micro-dilution methods according to CLSI guidelines (Clinical Laboratory and Standards Institute 2008a, 2008b) using 96-well microtitre cell-culture plates.
(§10) For bacteria assays, serial dilutions of the peptides (0.6-80 μM) in Mueller-Hinton broth (50 μL) were mixed with an inoculum of 50 μL of 10^6 colony forming units (CFU)/mL) from a log-phase culture. The peptide and inoculum mixture was incubated for 18 h at 37° C. in a humidified atmosphere. For yeast, an inoculum of 5×10^4 CFU/mL from Candida albicans was incubated in the presence of serial dilutions of the peptides (0.6-80 μM) in RPMI 1640 medium for 48 h at 35° C. After incubation, the absorbance at 630 nm of each well was determined using a microtiter plate reader.
(§11) As a control, incubations were carried out in parallel with increasing concentrations of antibiotics wherever the isolate was originally susceptible (ampicillin for S. aureus and E. coli, ciprofloxacin for K. pneumoniae and P. aeruginosa, and amphotericin B for C. albicans).

[5] = tested on: S. epidermidis; assay: MIC by micro-dilution, S. epidermidis; type: cell-based; settings: for Minimum inhibitory concentration S. epidermidis RP62A: strain RP62A; for Minimum inhibitory concentration S. epidermidis RP62A/1: strain RP62A/1; for Minimum inhibitory concentration S. epidermidis T6/19: strain T6/19; for Minimum inhibitory concentration S. epidermidis T37/8: strain T37/8
Procedure: as §9, §10

[6] = tested on: E. faecalis ATCC 29212; assay: MIC by micro-dilution, E. faecalis; type: cell-based, Enterococcus faecalis; settings: reference strain
Procedure: as §9, §10

[7] = tested on: E. coli; assay: MIC by micro-dilution, E. coli; type: cell-based; settings: reference strain
Procedure: as §9, §10, §11

[8] = tested on: K. pneumoniae; assay: MIC by micro-dilution, K. pneumoniae; type: cell-based; settings: reference strain
Procedure: as §9, §10, §11

[9] = tested on: P. aeruginosa; assay: MIC by micro-dilution, P. aeruginosa; type: cell-based; settings: reference strain
Procedure: as §9, §10, §11

[10] = tested on: C. albicans; assay: MIC by micro-dilution, C. albicans; type: cell-based, Candida albicans; settings: reference strain; RPMI 1640, 48 h at 35° C.
Procedure: as §9, §10, §11

[11] = tested on: A. baumannii
Procedure: (§12) Acinetobacter strains (NM8, NM35, NM75, NM109, and NM124) were isolated from different hospitals in the UAE. The Acinetobacter strains were characterised based on PCR analysis. […] Stenotrophomonas maltophilia strains (B32/1, B32/4, B5/5, B6/2, and U8708) were isolated from patients with bloodstream infection as discussed in Jumaa et al, 2006.
as §9, §10

[12] = tested on: S. maltophilia
Procedure: as §12, §9, §10

[13] = tested on: S. aureus (ATCC 25923); type: cell-based; settings: 4×MIC, within 180 min
Procedure: In order to determine the rate at which the peptides caused cell death, log-phase cultures of S. aureus (ATCC 25923) and E. coli (ATCC 25726) at a concentration of 0.5×10^6 CFU/mL in Mueller-Hinton broth (1 ml) were incubated in polypropylene tubes at 37° C. with Ps-1Pb at a concentration of 4×MIC. Control incubations in the absence of peptide were also carried out. Aliquots of 25 μl were removed at the time intervals 0, 0.5, 1, 2, 3, 4 and 24 hrs and the CFU of the serially diluted samples was determined on Mueller-Hinton agar plates. The time required for 99.9% cell death was determined.

[14] = tested on: Stenotrophomonas maltophilia strains; settings: all Stenotrophomonas strains (B32/1, B32/4, B5/5, B6/2, U8708); cited from earlier work
[15] = tested on: Acinetobacter strains; settings: strains NM8, NM35, NM75, NM109, NM124; Mechkarska et al., 2013; cited from earlier work
[16] = tested on: human breast adenocarcinoma MDA-MB-231 cells; assay: Viability assay (CellTiter-Glo, ATP), MDA-MB-231; type: cell-based; settings: 24 h exposure; mean ± S.E.M.; read-out: LC50 MDA-231
Procedure: as §1, §2, §3, §4, §5

[17] = tested on: human colorectal adenocarcinoma HT-29 cells; assay: Viability assay (CellTiter-Glo, ATP), HT-29; type: cell-based; settings: 24 h exposure; mean ± S.E.M.; read-out: LC50 HT-29
Procedure: as §1, §2, §3, §4, §5

[18] = 1 hour at 37° C., mean ± S.E.M., read-out: LC50 RBC (50% haemolysis)

Row | Molecule | Minimum inhibitory concentration S. aureus V4180 [4] [µM] | Minimum inhibitory concentration S. aureus ATCC 25923 [4] [µM] | Minimum inhibitory concentration S. aureus S908 [4] [µM] | Minimum inhibitory concentration S. aureus 127/08 [4] [µM] | Minimum inhibitory concentration S. aureus 145/08 [4] [µM] | Minimum inhibitory concentration S. aureus 274/08 [4] [µM] | Minimum inhibitory concentration S. aureus T4/6 [4] [µM] | Minimum inhibitory concentration S. epidermidis RP62A [5] [µM] | Minimum inhibitory concentration S. epidermidis RP62A/1 [5] [µM] | Minimum inhibitory concentration S. epidermidis T6/19 [5] [µM] | Minimum inhibitory concentration S. epidermidis T37/8 [5] [µM] | Minimum inhibitory concentration E. faecalis ATCC 29212 [6] [µM] | Minimum inhibitory concentration E. coli [7] [µM] | Minimum inhibitory concentration K. pneumoniae [8] [µM] | Minimum inhibitory concentration P. aeruginosa [9] [µM] | Minimum inhibitory concentration C. albicans [10] [µM] | Minimum inhibitory concentration A. baumannii NM8 [11] [µM] | Minimum inhibitory concentration A. baumannii NM35 [11] [µM] | Minimum inhibitory concentration A. baumannii NM75 [11] [µM] | Minimum inhibitory concentration A. baumannii NM109 [11] [µM] | further results
1 | IKIPSFFRNILKKVGKEAVSLIAGALKQS [Pseudhymenochirin-1Pb] | 5 | 5 | 5 | 5 | 10 | 5 | 5 | 2.5 | 1.25 | 2.5 | 2.5 | 10 | 10 | 20 | 20 | 80 | 10 | 5 | 5 | 5 | CC50 at 24 h ([1]; human): 5.6 ± 0.9 µM; HC50 at 1 hour [2]: 28 ± 2 µM; haemolytic activity (in words) [3]: high haemolytic activity; less cytotoxic to human erythrocytes as compared to the tumour cells [3]: 3-11 fold; MIC against clinical isolates of A. baumannii (range) [11]: 5 to 10 µM; Minimum inhibitory concentration A. baumannii NM124 [11]: 5 µM; MIC against clinical isolates of S. maltophilia (range) [12]: 5 to 10 µM; Minimum inhibitory concentration S. maltophilia U8908 [12]: 5 µM; Minimum inhibitory concentration S. maltophilia B5/5 ([12]; clinical isolate): 10 µM; Minimum inhibitory concentration S. maltophilia B6/2 ([12]; clinical isolate): 5 µM; Minimum inhibitory concentration S. maltophilia B32/1 ([12]; clinical isolate): 5 µM; Minimum inhibitory concentration S. maltophilia B32/4 ([12]; clinical isolate): 5 µM; killing of the bacteria, S. aureus [13]: > 99.9%
2 | co-trimoxazole | – | – | – | – | – | – | – | – | – | – | – | – | – | – | – | – | – | – | – | – | MIC against Stenotrophomonas strains [14]: < 5 µg/mL
3 | C[C@@H](O)[C@H]1C(=O)N2C(C(=O)O)=C(S[C@@H]3CN[C@H](C(=O)N(C)C)C3)[C@H](C)[C@H]12 [meropenem] | – | – | – | – | – | – | – | – | – | – | – | – | – | – | – | – | – | – | – | – | MIC against Stenotrophomonas strains [14]: > 32 µg/mL
4 | CN(C)c1cc(NC(=O)CNC(C)(C)C)c(O)c2c1C[C@H]1C[C@H]3[C@H](N(C)C)C(O)=C(C(N)=O)C(=O)[C@@]3(O)C(O)=C1C2=O [tigecycline] | – | – | – | – | – | – | – | – | – | – | – | – | – | – | – | – | – | – | – | – | susceptibility of Acinetobacter strains (in words) [15]: sensitive
5 | colistin | – | – | – | – | – | – | – | – | – | – | – | – | – | – | – | – | – | – | – | – | susceptibility of Acinetobacter strains (in words) [15]: sensitive
6 | GIFPIFAKLLGKVIKVASSLISKGRTE [Pseudhymenochirin-2Pa, Pseudhymenochirin-2 Pa] | 10 | 5 | 10 | 5 | 10 | 10 | 10 | 5 | 2.5 | 5 | 10 | 20 | >80 | >80 | >80 | 80 | 20 | 10 | 10 | 10 | CC50 [16]: 6.2 ± 0.6 µM; CC50 [17]: 11.5 ± 2.6 µM; CC50 at 24 h ([1]; 24 h exposure, non-neoplastic cells, mean ± S.E.M., read-out: LC50 HUVEC): 68 µM; HC50 at 1 hour [2, 18]: 6.2 ± 1 µM; CC50 [3, 18]: 6 µM; haemolytic activity (in words) ([3]; human erythrocytes): appreciable haemolytic activity; Minimum inhibitory concentration A. baumannii NM124 [11]: 20 µM; Minimum inhibitory concentration S. maltophilia B5/5 ([12]; clinical isolate): 40 µM; Minimum inhibitory concentration S. maltophilia B6/2 ([12]; clinical isolate): 20 µM; Minimum inhibitory concentration S. maltophilia B32/1 ([12]; clinical isolate): 10 µM; Minimum inhibitory concentration S. maltophilia B32/4 ([12]; clinical isolate): 10 µM; Minimum inhibitory concentration S. maltophilia U8908 ([12]; clinical isolate): 20 µM
